Test results taken from ChEMBL document CHEMBL1201862, “PubChem BioAssay data set” (2004).
Calls of active or inactive are those of the source.

How the values were obtained:
[1] = biological target: T1, Sentrin-specific protease 8 (Homo sapiens, UniProt Q96LD8); type: functional
T1 sequence (Q96LD8 whole entry): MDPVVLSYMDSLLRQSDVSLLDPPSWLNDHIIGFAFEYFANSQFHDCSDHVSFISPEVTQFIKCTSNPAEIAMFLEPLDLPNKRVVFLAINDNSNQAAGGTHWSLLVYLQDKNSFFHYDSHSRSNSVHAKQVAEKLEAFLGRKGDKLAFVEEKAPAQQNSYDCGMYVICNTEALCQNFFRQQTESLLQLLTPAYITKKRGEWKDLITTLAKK

[2] = biological target: T2, Heat shock factor protein 1 (Mus musculus, UniProt P38532); assay: enhancement of HSF1-driven luciferase signal – cell-based, NIH3T3, luminescence, dose retest, confirmation (AID 435004); type: functional;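 further: stress induced by proteasome inhibitor MG132 added 30 min after compound; luciferase reporter driven by HSF1 response element in NIH3T3 cells; actives raise luminescence as potentiators of the MG132 stress response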
T2 sequence (P38532 whole entry): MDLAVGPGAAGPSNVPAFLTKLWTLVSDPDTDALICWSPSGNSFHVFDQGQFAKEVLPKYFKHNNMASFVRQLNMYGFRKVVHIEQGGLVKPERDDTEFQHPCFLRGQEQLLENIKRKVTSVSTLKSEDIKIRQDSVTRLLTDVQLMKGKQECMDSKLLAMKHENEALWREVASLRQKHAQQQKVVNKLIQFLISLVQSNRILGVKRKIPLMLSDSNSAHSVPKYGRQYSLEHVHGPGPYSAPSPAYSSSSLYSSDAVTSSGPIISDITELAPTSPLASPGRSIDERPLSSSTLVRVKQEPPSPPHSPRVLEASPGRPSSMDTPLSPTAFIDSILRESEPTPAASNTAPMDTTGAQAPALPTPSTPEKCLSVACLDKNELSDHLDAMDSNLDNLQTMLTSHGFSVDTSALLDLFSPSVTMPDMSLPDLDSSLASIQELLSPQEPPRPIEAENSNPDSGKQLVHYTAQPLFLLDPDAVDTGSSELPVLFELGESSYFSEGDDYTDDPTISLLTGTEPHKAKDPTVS

[3] = biological target: T1, Sentrin-specific protease 8; type: functional; remark: listed apart in the source
Cytochrome P450 2C19 = Cytochrome P450 2C19 (Homo sapiens, UniProt P33261); assay: Cytochrome panel assay with activity outcomes. Panel member name: p450-cyp2c19 Compounds with AC50 equal or less than 10 uM are considered active; type: functional
Cytochrome P450 2D6 = Cytochrome P450 2D6 (Homo sapiens, UniProt P10635);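 further: CYP2D6 member of a cytochrome P450 panel assay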
Nonstructural protein 1 = Nonstructural protein 1 (Influenza A virus, UniProt Q194T2); type: functional, Influenza A virus (A/California/07/2009(H1N1))
BJ [4] = assay: cells; type: functional, cell-based; conditions: Homo sapiens
BJ [5] = assay: BJ-TERT fibroblast viability loss – cell-based, RAS-independent, luminescence, dose response (AID 1933); type: functional; conditions: Homo sapiens
BJ [6] = assay: BJ-TERT-LT-ST fibroblast viability loss – cell-based, RAS-independent, luminescence, dose response (AID 1935); type: functional; conditions: Homo sapiens;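 further: BJ fibroblasts immortalized with TERT plus LT and ST oncogenes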
[7] = NIH-3T3 fibroblast cytotoxicity, dose response, cytotoxicity control, cell-based, fluorescence, Alamar Blue, secondary assay (AID 2327); type: functional;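 further: NIH-3T3 mouse fibroblasts cultured with fluconazole at 8 µg/mL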
[8] = fluconazole-exposed Candida albicans growth modulators – fluorescence, retest, confirmation (AID 2467); type: functional, cell-based
[9] = biological target: ATP-dependent molecular chaperone HSP82 (Candida albicans (strain WO-1) (Yeast), UniProt C4YTQ8); assay: steroid-induced GRE reporter decrease in yeast – S. cerevisiae, luminescence, Hsp90 inhibitor project, dose response (AID 2400); type: functional, cell-based;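 further: beta-galactosidase luminescence from glucocorticoid response element reporter as proxy for Hsp90 function; inhibitor potency where signal loss means Hsp90 inhibition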
BJ [10] = assay: growth inhibition of engineered Ras-driven BJ cells – cell-based, alamar blue fluorescence, cherrypicked samples, dose response (AID 2631); type: functional; conditions: Homo sapiens;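 further: confirmatory dose-response assay in RAS-dependent BJ fibroblasts engineered with TERT, LT and ST, with cytotoxicity read by fluorescence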
[11] = biological target: T3, Serine/threonine-protein phosphatase (Candida dubliniensis (strain CD36 / CBS 7987 / NCPF 3949 / NRRLY-17841) (Yeast), UniProt B9W6M3); assay: blockers of CaCl2-induced CDRE-lacZ signaling – S. cerevisiae, luminescence, secondary, dose response (AID 2388); type: functional, cell-based;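 further: yeast reporter cells carrying a calcineurin-responsive lacZ construct stimulated with calcium chloride; luminescent beta-galactosidase reporter signal in whole cells rather than isolated phosphatase activity; potency for inhibition where a drop in reporter signal means calcineurin blockade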
T3 sequence (B9W6M3 whole entry): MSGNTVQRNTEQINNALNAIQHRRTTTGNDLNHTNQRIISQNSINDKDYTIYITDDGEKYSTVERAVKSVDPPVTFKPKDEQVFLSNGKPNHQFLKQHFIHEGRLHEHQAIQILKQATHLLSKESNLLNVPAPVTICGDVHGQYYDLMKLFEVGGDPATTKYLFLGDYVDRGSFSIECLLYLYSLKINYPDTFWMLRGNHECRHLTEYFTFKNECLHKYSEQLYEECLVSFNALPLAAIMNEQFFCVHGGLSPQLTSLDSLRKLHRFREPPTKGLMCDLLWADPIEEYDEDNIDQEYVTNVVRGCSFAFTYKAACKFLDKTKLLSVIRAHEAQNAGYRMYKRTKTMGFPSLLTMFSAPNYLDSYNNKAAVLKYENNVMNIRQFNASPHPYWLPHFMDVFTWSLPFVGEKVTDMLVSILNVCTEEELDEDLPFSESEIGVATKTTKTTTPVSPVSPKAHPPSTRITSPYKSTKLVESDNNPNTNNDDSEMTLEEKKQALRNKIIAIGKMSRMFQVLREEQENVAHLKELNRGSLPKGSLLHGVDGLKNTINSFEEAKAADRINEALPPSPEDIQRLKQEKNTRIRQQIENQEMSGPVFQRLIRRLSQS

[12] = biological target: Heat shock protein HSP 90-alpha (Homo sapiens, UniProt P07900); type: functional, organism-based
[13] = DRD fibroblast viability loss – cell-based, non-viral oncogenic, luminescence, dose response (AID 1934); type: functional; conditions: Homo sapiens
[14] = biological target: T4, Microphthalmia-associated transcription factor (Homo sapiens, UniProt O75030); assay: reducers of TRPM1 reporter luminescence, concentration series – cell-based, SK-MEL-5, cherry-picked, set 3, MITF inhibitor project, dose response (AID 493073); type: functional;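 further: SK-MEL-5 melanoma cells with luciferase driven by the MITF target TRPM1 promoter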
T4 sequence (O75030 whole entry): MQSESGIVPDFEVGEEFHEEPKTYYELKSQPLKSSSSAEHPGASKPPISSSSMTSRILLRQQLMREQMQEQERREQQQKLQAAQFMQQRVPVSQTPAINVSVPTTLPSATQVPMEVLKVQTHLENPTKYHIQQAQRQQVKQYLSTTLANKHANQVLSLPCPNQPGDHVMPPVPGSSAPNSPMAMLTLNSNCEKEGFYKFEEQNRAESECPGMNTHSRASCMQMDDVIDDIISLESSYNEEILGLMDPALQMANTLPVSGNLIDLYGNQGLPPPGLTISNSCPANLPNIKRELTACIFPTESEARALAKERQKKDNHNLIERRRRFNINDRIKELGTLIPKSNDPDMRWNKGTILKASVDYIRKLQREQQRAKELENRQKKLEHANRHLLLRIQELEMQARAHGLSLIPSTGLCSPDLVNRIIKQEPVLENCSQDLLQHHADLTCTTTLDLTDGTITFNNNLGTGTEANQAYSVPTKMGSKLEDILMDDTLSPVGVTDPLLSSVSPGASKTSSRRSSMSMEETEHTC

[15] = biological target: 26S proteasome non-ATPase regulatory subunit 14 (Homo sapiens, UniProt O00487); assay: inhibition of proteasome subunit RPN11 – biochemical, fluorescence polarization, uHTS hits, confirmation (AID 602368); type: functional
[16] = tested on: Streptococcus sp. 'group A'; assay: Streptococcus pyogenes SK(-)GAS viability under kanamycin – luminescence, BacTiterGlo, confirmation, counter-screen for streptokinase expression inhibitor project, dose response (AID 1900); type: functional, organism-based
[17] = Luminescence Cell-Based Dose Retest to Confirm Inhibitors of Cancer Stem Cells. [Related pubchem assays (depositor defined):AID2717, AID2721]; type: functional, Homo sapiens; conditions: Homo sapiens
Streptococcus = assay: GAS UMAA2166 growth inhibition – luminescence, BacTiterGlo, counter-screen for streptokinase expression inhibitor project, dose response (AID 1915); type: functional, organism-based;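 further: potency for reduction of bacterial viability or growth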
[18] = biological target: 72 kDa type IV collagenase (Homo sapiens, UniProt P08253); assay: Dose Response validation of uHTS RPN11 inhibitor hits using a MMP-2 Fluorescence assay.; type: functional
Prothrombin = Prothrombin (Bos taurus, UniProt P00735); assay: thrombin protease inhibitors – biochemical, fluorescence polarization, uHTS hits, dose response (AID 602369); type: functional
[19] = HEK-293T cell viability reduction – luminescence, B-cell screen hits, cytotoxicity control for BCR NF-kB inhibitor project, dose response (AID 489021); type: functional, cell-based;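 further: HEK-293T cells carrying an NF-kB luciferase reporter; cells exposed to compound for about 14 hours before viability readout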

Chain of Cytochrome P450 2D6 (P10635 whole entry): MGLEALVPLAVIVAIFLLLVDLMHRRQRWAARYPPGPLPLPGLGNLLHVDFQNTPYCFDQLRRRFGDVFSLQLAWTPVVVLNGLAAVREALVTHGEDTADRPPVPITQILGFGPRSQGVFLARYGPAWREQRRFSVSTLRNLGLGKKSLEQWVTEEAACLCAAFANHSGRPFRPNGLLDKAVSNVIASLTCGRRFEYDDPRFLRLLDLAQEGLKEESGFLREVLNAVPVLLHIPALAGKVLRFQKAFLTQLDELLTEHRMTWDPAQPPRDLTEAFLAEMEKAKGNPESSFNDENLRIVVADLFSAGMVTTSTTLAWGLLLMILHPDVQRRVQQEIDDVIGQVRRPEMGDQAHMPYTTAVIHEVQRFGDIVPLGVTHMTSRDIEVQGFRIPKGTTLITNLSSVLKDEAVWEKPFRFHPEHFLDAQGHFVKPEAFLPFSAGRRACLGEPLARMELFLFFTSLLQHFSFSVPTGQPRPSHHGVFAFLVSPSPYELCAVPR
Chain of Cytochrome P450 2C19 (P33261 whole entry): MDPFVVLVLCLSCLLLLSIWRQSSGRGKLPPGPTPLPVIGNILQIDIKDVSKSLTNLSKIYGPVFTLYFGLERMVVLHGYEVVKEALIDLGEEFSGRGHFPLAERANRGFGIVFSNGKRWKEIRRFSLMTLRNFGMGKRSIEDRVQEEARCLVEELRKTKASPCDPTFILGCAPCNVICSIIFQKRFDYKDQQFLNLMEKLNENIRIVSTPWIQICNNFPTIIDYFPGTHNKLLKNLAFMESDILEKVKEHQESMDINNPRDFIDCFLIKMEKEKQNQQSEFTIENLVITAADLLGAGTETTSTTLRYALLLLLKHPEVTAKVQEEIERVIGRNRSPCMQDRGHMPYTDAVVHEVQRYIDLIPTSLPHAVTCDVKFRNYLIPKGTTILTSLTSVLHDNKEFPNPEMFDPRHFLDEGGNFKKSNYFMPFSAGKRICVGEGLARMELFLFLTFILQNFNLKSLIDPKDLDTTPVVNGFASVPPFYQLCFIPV
Chain of 72 kDa type IV collagenase (P08253 whole entry): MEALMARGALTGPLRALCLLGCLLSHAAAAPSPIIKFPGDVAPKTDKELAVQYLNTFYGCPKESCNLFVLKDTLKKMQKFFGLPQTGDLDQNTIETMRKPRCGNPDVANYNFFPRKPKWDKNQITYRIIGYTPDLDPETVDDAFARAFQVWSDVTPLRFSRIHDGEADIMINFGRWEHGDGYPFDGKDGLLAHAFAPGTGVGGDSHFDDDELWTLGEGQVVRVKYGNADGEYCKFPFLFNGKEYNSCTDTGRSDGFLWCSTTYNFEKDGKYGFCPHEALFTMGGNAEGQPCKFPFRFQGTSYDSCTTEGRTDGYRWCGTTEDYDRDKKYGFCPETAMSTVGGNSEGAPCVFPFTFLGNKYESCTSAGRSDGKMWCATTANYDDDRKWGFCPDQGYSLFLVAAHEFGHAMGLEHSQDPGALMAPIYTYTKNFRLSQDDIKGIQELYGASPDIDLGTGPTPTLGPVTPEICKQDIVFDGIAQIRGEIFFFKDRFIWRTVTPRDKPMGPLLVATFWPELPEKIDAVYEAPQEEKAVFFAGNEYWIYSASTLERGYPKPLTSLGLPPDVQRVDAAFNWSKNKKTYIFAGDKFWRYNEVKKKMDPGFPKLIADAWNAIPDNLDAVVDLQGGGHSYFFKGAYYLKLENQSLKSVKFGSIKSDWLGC
Chain of 26S proteasome non-ATPase regulatory subunit 14 (O00487 whole entry): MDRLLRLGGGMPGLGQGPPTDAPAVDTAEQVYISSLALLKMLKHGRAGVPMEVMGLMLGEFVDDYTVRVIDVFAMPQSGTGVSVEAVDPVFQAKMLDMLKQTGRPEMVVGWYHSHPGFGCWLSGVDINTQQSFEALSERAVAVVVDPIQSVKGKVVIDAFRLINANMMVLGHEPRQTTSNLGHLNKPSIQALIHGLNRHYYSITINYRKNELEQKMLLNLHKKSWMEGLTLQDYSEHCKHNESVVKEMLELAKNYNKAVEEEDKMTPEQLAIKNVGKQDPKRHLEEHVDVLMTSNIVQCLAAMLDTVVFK
Chain of Nonstructural protein 1 (Q194T2 whole entry): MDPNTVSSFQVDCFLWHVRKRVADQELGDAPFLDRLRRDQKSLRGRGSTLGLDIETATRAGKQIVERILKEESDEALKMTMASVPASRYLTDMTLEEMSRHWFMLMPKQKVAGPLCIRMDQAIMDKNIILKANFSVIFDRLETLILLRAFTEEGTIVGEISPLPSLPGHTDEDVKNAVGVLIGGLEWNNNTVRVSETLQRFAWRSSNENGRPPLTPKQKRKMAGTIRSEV
Chain of ATP-dependent molecular chaperone HSP82 (C4YTQ8 whole entry): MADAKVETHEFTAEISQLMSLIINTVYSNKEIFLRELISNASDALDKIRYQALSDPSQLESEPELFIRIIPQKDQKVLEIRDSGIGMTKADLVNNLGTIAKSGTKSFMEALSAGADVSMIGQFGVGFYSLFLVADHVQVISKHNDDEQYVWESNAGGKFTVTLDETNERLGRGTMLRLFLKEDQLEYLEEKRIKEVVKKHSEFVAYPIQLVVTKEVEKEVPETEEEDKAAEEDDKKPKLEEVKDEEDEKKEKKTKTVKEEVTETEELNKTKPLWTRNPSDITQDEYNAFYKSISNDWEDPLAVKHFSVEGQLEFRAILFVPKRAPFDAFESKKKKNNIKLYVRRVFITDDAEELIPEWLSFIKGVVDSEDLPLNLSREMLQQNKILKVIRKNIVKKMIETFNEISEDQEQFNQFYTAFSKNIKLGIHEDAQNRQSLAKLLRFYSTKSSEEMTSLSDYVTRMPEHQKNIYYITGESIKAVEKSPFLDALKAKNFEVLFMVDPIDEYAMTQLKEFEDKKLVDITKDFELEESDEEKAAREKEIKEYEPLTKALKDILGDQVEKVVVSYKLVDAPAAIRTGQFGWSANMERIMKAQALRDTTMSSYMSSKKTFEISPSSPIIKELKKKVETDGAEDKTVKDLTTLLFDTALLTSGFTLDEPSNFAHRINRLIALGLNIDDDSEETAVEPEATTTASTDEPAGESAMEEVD

For `CC(=O)C1=C(C)NC2(O)c3ccccc3C(=O)C12O` (stereo not drawn), the IC50 [1] was 11.1 µM (active), the EC50 [2] was > 260 µM (inactive) and the IC50 [3] was 22.4 µM (active).

With `NC1(C(=O)O)CCCCC1` the AC50 (Cytochrome P450 2C19) was “inconclusive” and the AC50 (Cytochrome P450 2D6) was “inconclusive”.

With `CC(=O)Nc1ccccc1C(=O)C(=O)O` the AC50 (Cytochrome P450 2C19; read-out: AC50) was 10 µM (inconclusive) and the AC50 (Cytochrome P450 2D6) was “inconclusive”.

With `O=Cc1ccc(O)c2ncccc12` the IC50 (Nonstructural protein 1) was 1.71 µM (active), the EC50 (BJ [4]) was 33.7 µM (active) and the EC50 (BJ [5]) was 4.43 µM (active). For the same compound, the EC50 (BJ [6]) was 21.1 µM (inconclusive), the EC50 [7] was 16.1 µM (active) and the EC50 [8] was 0.333 µM (active). The EC50 [9] was 11.2 µM (active), the EC50 (BJ [10]) was 0.284 µM (active) and the EC50 [11] was 3.93 µM (active). The AC50 [12] was 0.552 µM (active) and the EC50 [13] was 16.6 µM (active).

For `C=CCn1c(C)cc(C2=NN=C(NC(C)(C)C)SC2)c1C`, the AC50 [14] was 4.09 µM (active).

In the case of `Cc1cc(N2C(=O)Cc3ccccc3C2=O)ccc1C(C)C`, the IC50 [1] was > 100 µM (inactive) and the IC50 [3] was 4.5 µM (active).

With `O=C(CSc1nc(O)c2c(C(F)(F)F)cc(-c3cccs3)nc2n1)Nc1ccc(F)c(F)c1` the IC50 [15] was 42.7 µM (active), the EC50 [16] was 1.12 µM (active) and the AC50 [17] was 1.27 µM (active). The EC50 (Streptococcus) was 2.58 µM (active), the IC50 [18] was > 100 µM (inactive) and the IC50 (Prothrombin) was 79.4 µM (active).

For `COC(=O)[C@@]12OC[C@]34[C@H]([C@@H](O)[C@@H]1O)[C@@]1(C)C(=O)C(O[C@@H]5OC(CO)[C@@H](O)[C@@H](O)[C@@H]5O)=C[C@@H](C)[C@@H]1C[C@H]3OC(=O)[C@H](OC(=O)/C=C(\C)C(C)(C)OC(C)=O)[C@@H]24` (stereo partly drawn), the IC50 [19] was > 80 µM (inactive).
